Measurements published in patent US20250082587A1, “Method Of Treating Major Depressive Disorder” (CLEXIO BIOSCIENCES LTD., priority 2023, published 2025).

Test system: subjects with MDD with an inadequate response to standard antidepressant therapy
Assay: Phase 2, randomized double blind study of 40 mg immediate release once daily esketamine as adjunct therapy; change in MADRS score
Format: in vivo, human
Details: for Change from baseline against placebo (MADRS): sub-analysis, 40 mg oral once daily
Experimental: A Phase 2, randomized double blind study to assess the safety and efficacy of 40 mg immediate release once daily esketamine as an adjunct therapy for subjects with MDD with an inadequate response to standard antidepressant therapy.
The safety and efficacy of 65 subjects with MDD with an inadequate response to standard antidepressant therapy were assessed in a Phase 2, randomized double blind study following the administration of 40 mg of immediate release once daily esketamine as adjunct therapy.
The study comprised 3 phases, screening (Days 0-28), double-blind treatment (days 29-56) and post-treatment safety follow-up (days 57-70) following the last study treatment administration.
The study's primary efficacy endpoint was the change from baseline to week 4 in the 10 item Montgomery-Åsberg Depression Rating Scale (MADRS). Key secondary efficacy endpoints included the change in the self-rated Symptoms of Depression Questionnaire (SDQ) from Baseline to Week 4, the change in the Sheehan Disability Scale (SDS) from Baseline to Week 4, the change in the MADRS score from Baseline to Week 2 and the change in the Clinical Global Impression-Severity (CGI-S) from Baseline to Week 4.
During screening, subjects were assessed for study eligibility and washed out from disallowed drugs. Inclusion criteria for the study included the subjects presenting with a baseline MADRS of at least 24.
After being found eligible, subjects were randomized to receive once daily, either placebo or 40 mg of oral, immediate release, esketamine, respectively.
Subjects received the first dose of their study drug at the study site and were then closely monitored for 3 hours to assess for potential neuropsychiatric adverse events using a comprehensive set of scales to identify sleepiness, sedation and dissociative effects. Thereafter, the subject was provided with a 1 week supply of the study drug for administration at their place of residence and instructed to take the study drug in the evening (except at the day of the weekly visit when it is taken at the study site) and not to drive for at least 8 hours following the dosing. At every subject visit, a psychiatrist evaluated the subject's MADRS score.

SMILES: CN[C@]1(c2ccccc2Cl)CCCCC1=O [esketamine, (2S)-2-(2-Chlorophenyl)-2-(methylamino)cyclohexanone]
- improvement in the symptoms (baseline MADRS of 28 or more, 40 mg immediate release oral, 28 days): statistically significant improvement
- improvement in depression symptoms (baseline MADRS of less than 28, 40 mg immediate release oral, 28 days): no identifiable improvement
- Change from baseline against placebo (MADRS) (baseline MADRS score <28, 28 days): +4.25
- Change from baseline against placebo (MADRS) (baseline MADRS score ≥28, 28 days, p value 0.005): −7.425
- Change from baseline against placebo (MADRS) (baseline MADRS score ≥33, 28 days, p value 0.050): −5.978
- primary efficacy endpoint (change from baseline to week 4 in MADRS) between treatment groups (subjects who completed the study, 40 mg oral once daily vs placebo): clinically meaningful and statistically significant
